This assay in a line: Antagonist activity at CRTH2 receptor in human whole blood assessed as inhibition of PGD2-induced eosinophil shape change after 10 mins by fluorescence assay.

In BindingDB's records for doi:10.1016/j.bmcl.2014.08.026 (Rhône-Poulenc Rorer, 2014) one finds IC50 data, which are given here for one compound.

Consider `Cc1c(Cc2ccccc2S(=O)(=O)c2ccccc2)c2c(n1CC(=O)O)CCNC2=O`, for which the IC50 (usually the point on the concentration scale where inhibition reaches its midpoint) came to 8 nM.
